Data: publication PMC9369794 (Molecules, 2022)
In brackets after ≈: the same amount, converted by molar mass.

Key:
[1] = Kinetic solubility in PBS pH 7.4; type: physicochemical; conditions: aqueous buffer, kinetic from dmso stock, kinetic solubility after 2 h, at 37 °C in PBS, nominal 250 μM, read-out: Kin.Sol.
Experimental: On a 96-well polypropylene plate (Greiner bio-one) 7.5 μL stock solutions were added to 292.5 μL PBS (pH 7.4) to make a solution with the nominal concentration of 250 μM. For each sample 3 replicates were measured. […] After that, each sample was transferred into a filter plate (MSSBLPC, Multiscreen Filter plate, Merck kGaA) and filtered (Vaccum Manifold, Merck kGaA, Darmstadt, Germany). The filtrates were transferred into UV-Star microplates (Greiner bio-one) and acetonitrile (AcN) was added to each well to avoid precipitation. The final solvent ratio was AcN:PBS 70:30. UV-Vis spectra were collected for each replicate by a Multiskan Sky UV-plate reader (Thermo Scientific, Waltham, MA, USA) in a wavelength range of 250–700 nm, with 1 nm steps. After blank substraction, the kinetic solubility of the samples was determined based on absorption at λmax using a 5-point calibration curve for each sample recorded in 70:30 AcN:PBS solvent.
Limit of detection (LOD) and limit of quantification (LOQ) were calculated with Equations (1) and (2) respectively, based on UV-Vis spectral data:(1) LOD=3.3×σ/s (2) LOQ=10×σ/s where the σ value in the equations stands for the standard deviation of the absorption base line at 700 nm (where no sample-specific absorption was observed). The s value is the slope of the calibration curve recorded for each sample based on their absorption at λmax (Table 4.)

[2] = BBB-specific permeability assay (BBB-PAMPA); type: in vitro ADME; conditions: PBS pH 7.4, 37 °C, read-out: BBB-PAMPA Pe
Experimental: In vitro, blood-brain barrier-specific (BBB) permeability studies were carried out using the PAMPA technique. First, solutions with the nominal concentration of 250 μM were prepared as described in Section 3.1. The solutions were shaken for 1 h at room temperature, at 300 rpm. For preparing the artificial BBB-specific membrane 16 mg BPLE and 8 mg cholesterol were dissolved in 600 μL dodecane. Each well of the donor plate (MultiscreenTM-IP, MAIPNTR10, pore size […], Merck kGaA) was coated with 5 μL lipid solution, and fitted into the acceptor plate containing 300 μL PBS (pH 7.4) with 2.5% DMSO, and 150–150 μL of the PBS solutions (made from the DMSO stock solutions) were put on the donor plate’s artificial membrane. The sandwich plate system was covered with a tissue of wet paper and a plastic lid to avoid evaporation of the solvent, and it was incubated at 37 °C for 4 h. In the end, the donor solutions were filtrated (Vacuum Manifold, Merck kGaA), and the initial 250 μM solutions (cD(0)), the donor (cD(t)) and acceptor solution (cA(t)) were analyzed by a Multiskan Sky UV-plate-reader (Thermo Scientific) in the wavelength range of 250–700 nm, with 1 nm steps.
BBB permeability was calculated using the effective permeability equation used for iso-pH conditions described by A. Avdeef:(3) Pe=−2.303/A·(t−τss)·(1/1+rv)·lg[−rv+(1+rv/1−MR)·cD(t)/cD(0)] […]

## COc1ccc2[nH]cc(CCNC(C)=O)c2c1 [Melatonin, melatonin, reference compound]
[1]
  solubility kinetic at 2 h: 123 ± 9.4 µM (≈ 28.6 µg/mL)
[2]
  Papp at 4 h, 250 μM: 2.97 ± 1.18 ×10⁻⁶ cm/s
